# Source: US5668146A, “Symmetrical bis-heteroarylmethoxyphenyliminoxyalkyl carboxylates as inhibitors of leukotriene biosynthesis” (Abbott Laboratories, priority 1996, dated 1997)
# Experiments:
# leukotriene biosynthesis [1] = details: oral; Prasit, et al., 1991; cited from earlier work
# [2] = system: 5-Lipoxygenase From Stimulated LTB4 Formation in Human Polymorphonuclear Leukocytes; test: Inhibition of calcium ionophore-induced LTB4 formation in human polymorphonuclear leukocytes (PMNL); type: cell-based; details: calcium ionophore 8.3 μM, 10 min at 37° C., 15 min preincubation
# Experimental: Inhibition of leukotriene biosynthesis was evaluated in an assay involving calcium ionophore-induced LTB4 expressed in human polymorphonuclear leukocytes (PMNL). Human PMNL isolated from heparinized (20 USP units/mL) venous blood (25 mL) obtained from healthy volunteers was layered over an equal volume of Ficoll-Hypaque Mono-Poly Resolving Medium (ICN Flow, Costa Mesa, Calif.) and centrifugated at 400×g for 40 minutes at 20° C. The PMNL was collected, erythrocytes lysed and washed 2× and suspended at 1.0×10^7 cells/mL in Earle's balanced salt solution with 17 mM Earle's HEPES. Aliquots of the cell suspension were preincubated with test compounds dissolved in DMSO (final concentration <2%) for 15 minutes and stimulated with calcium ionophore (final concentration 8.3 μM) for 10 minutes at 37° C. Incubations were stopped with the addition of two volumes of ice cold methanol followed by centrifuging the cell suspensions at 4° C. for 10 minutes at 450×g. The amount of LTB4 in the methanol extract was analyzed by enzyme-linked immunoassay or by HPLC analysis.
# leukotriene biosynthesis [3] = test: Ionophore A-23187-Induced Rat Pleural Inflammation Model (in vivo leukotriene inhibition); details: male rats, dosed one hour prior to intrapleural A23187 (20 μg), lavage after 30 min, eicosanoids by enzyme immunoassay
# Experimental: Inhibition of leukotriene biosynthesis in vivo was evaluated using the Ionophore A-23187-Induced Rat Plueral Inflammation Model. Pleural inflammation was induced in male rats following the method of Rao, et al. (Rao, T. S., Currie, J. L., Shaffer, A. F., Isakson, P. C., Evaluation of 5-lipoxygenase Inhibitors, Zileuton, A78773 and ICI D-2 138 in an Ionophore (A-23187) Induced Pleural Inflammation Model in the Rat, Life Sciences, 53, 147 (1993)). Rats were dosed with experimental compounds in 0.2% methocel one hour prior to the intrapleural injection of the calcium ionophore, A23187. The rats where lightly anaesthetized with Pentrane (Abbott Laboratories) and injected intrapleurally with 0.5 ml of 2% ethanol in injectable saline (Abbott Laboratories) containing 20 μg of A23187 (Cal BioChem-Novabiochem). Thirty minutes later the animals were euthanised and the pleural cavities lavaged with ice cold saline (Abbott Laboratories). The lavage fluid was then added to ice cold methanol (final methanol concentration 30%) to lyse cells and precipitate protein. Eicosanoids were determined by enzyme immunoassay by standard methods.
IC50 [2] [nM],Structure (SMILES),orally active leukotriene biosynthesis inhibitor (in words) (leukotriene biosynthesis [1]),ED50 (leukotriene biosynthesis [3]) [mg/kg]
68,"O=C(O)C=NOC(c1ccc(OCc2ccc3ccccc3n2)cc1)c1ccc(OCc2ccc3ccccc3n2)cc1 [Example 1, bis(4-(2-quinolylmethoxy)phenyl)methyliminoxyacetic acid]",–,–
160,"CC(=NOC(c1ccc(OCc2ccc3ccccc3n2)cc1)c1ccc(OCc2ccc3ccccc3n2)cc1)C(=O)O [Example 2, 2-(bis(4-(2-quinolylmethoxy)phenyl)methyliminoxy)propionic acid]",–,2
30,CC(/C=C/C(=O)O)=NOC(c1ccc(OCc2ccc3ccccc3n2)cc1)c1ccc(OCc2ccc3ccccc3n2)cc1 [Example 8],–,–

# The remaining lines, values behind:
Structure (SMILES),IC50 [2] [nM],orally active leukotriene biosynthesis inhibitor (in words) (leukotriene biosynthesis [1]),ED50 (leukotriene biosynthesis [3]) [mg/kg]
O=C(O)CSC(CCCc1ccc(Cl)cc1)c1ccc(OCc2ccc3ccccc3n2)cc1 (centres unmarked) [((4-(4-chlorophenyl)-1-(4-(2-quinolylmethoxy)phenyl)butyl)thio)acetic acid],–,orally active leukotriene biosynthesis inhibitor,–
"CC(=NOC(c1ccc(OCc2ccc3cc(F)ccc3n2)cc1)c1ccc(OCc2ccc3cc(F)ccc3n2)cc1)C(=O)O [Example 6, 2-(bis(4-(6-fluoro-2-quinolylmethoxy)phenyl)methyliminoxy)propionic acid]",40,–,–
"CC(CCC(=O)O)=NOC(c1ccc(OCc2ccc3ccccc3n2)cc1)c1ccc(OCc2ccc3ccccc3n2)cc1 [Example 7, 4-(bis(4-(2-quinolylmethoxy)phenyl)methyliminoxy)pentanoic acid]",50,–,1
